In assay [1] the test system is LTB4 production in human whole blood. The assay can be described thus: LTB4 production inhibition assay in human whole blood (calcimycin-stimulated). It is filed as cell-based. As to conditions: heparinized human whole blood, 15 min 37° C., calcimycin 20 μM 30 min, plasma LTB4 by HTRF. The procedure:
Compounds of the invention are additionally tested in a human whole blood assay to determine their ability to inhibit the synthesis of LTB4 in a cellular system. Compounds are combined with heparinized human whole blood and incubated for 15 minutes at 37° C. Calcimycin (20 μM final, prepared in phosphate-buffered saline, pH 7.4) is then added and the mixture is incubated for another 30 minutes at 37° C. The samples are centrifuged for 5 min at low speed (1500×g) and the plasma layer is removed. Plasma LTB4 concentrations are then measured using an antibody-based homogenous time-resolved fluorescence method (CisBio, Bedford, Mass.).
(In general: In TR-FRET formats the signal depends on donor and acceptor labels being close together.)

In assay [2] the target is T1, human LTA4 hydrolase (Homo sapiens, UniProt P09960).
T1 sequence (P09960 1-611): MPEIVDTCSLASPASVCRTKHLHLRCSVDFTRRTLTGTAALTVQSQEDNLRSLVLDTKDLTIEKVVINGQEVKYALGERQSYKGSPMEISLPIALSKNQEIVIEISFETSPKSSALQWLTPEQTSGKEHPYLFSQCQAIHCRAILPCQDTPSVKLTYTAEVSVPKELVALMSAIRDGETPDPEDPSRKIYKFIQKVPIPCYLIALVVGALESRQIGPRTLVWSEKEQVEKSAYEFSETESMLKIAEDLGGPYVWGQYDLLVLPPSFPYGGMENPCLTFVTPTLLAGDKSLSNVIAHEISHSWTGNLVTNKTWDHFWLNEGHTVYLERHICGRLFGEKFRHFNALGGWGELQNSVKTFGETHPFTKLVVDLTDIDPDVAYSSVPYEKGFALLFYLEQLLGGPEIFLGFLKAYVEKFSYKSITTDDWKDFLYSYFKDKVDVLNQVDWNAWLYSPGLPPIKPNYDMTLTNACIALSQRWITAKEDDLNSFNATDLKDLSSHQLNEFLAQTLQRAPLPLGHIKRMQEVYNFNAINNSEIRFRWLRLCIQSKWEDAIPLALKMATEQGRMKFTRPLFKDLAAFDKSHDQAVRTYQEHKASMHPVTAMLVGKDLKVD
The assay can be described thus: LTA4H enzyme assay (cleavage of Arg-AMC, fluorescence). It is filed as biochemical. The note with it: LTA4H enzyme 1 nM, Arg-AMC substrate 50 μM, room temperature 1 h. The procedure: Compounds are assessed for the ability to interact with human LTA4 hydrolase in an enzymatic assay that measures the ability of the enzyme to cleave the peptide bond of arginyl-aminomethylcoumarin (Arg-AMC). LTA4H Enzyme (1 nM final), Arg-AMC substrate (50 μM final), and compound are combined in a reaction buffer (50 mM Tris-HCl (pH 7.5), 100 mM KCl, 0.5% bovine serum albumin) at room temperature for 1 h. The formation of product is assessed by measuring the fluorescence of aminomethylcoumarin product (excitation wavelength 380 nm/emission wavelength 460 nm).

Molecules are shown by their SMILES. Bounds are passed on as bounds.

Turning to `c1cc(-c2ccc(Oc3ccc(OCc4cnco4)cc3)cc2)[nH]n1` [Example 78, 5-({4-[4-(1H-pyrazol-5-yl)phenoxy]phenoxy}methyl)-1,3-oxazole], the IC50 in assay [1] amounted to 1650 nM; in assay [2], 2.8 nM.

As to `O=C1CCC(Oc2ccc(Oc3ccc(-c4ccn[nH]4)cc3)cc2)CN1` (stereo not drawn) [Example 8, 5-{4-[4-(1H-pyrazol-5-yl)phenoxy]phenoxy}piperidin-2-one], the IC50 in assay [1] stood at 222 nM; in assay [2], 0.5 nM.

In the case of `O=C1CC[C@@H](Oc2ccc(Cc3ccc(-c4ccn[nH]4)cc3)cc2)CN1` [Example 18, (5R)-5-{4-[4-(1H-pyrazol-5-yl)benzyl]phenoxy}piperidin-2-one], the IC50 is 581 nM in assay [1] and 0.8 nM in assay [2].

For `c1ccc2c(c1)ncn2CCOc1ccc(Oc2ccc(-c3ccn[nH]3)cc2)cc1` [Example 43, 1-(2-{4-[4-(1H-pyrazol-5-yl)phenoxy]phenoxy}ethyl)-1H-benzimidazole], the IC50 in assay [1] came out at 1910 nM; in assay [2] it was 1.3 nM.

In the case of `c1cc(-c2ccc(Cc3ccc(OCCN4CCOCC4)cc3)cc2)[nH]n1` [Example 25, 4-(2-{4-[4-(1H-pyrazol-5-yl)benzyl]phenoxy}ethyl)morpholine], the results for the IC50 in assay [1] and in assay [2] were 123 nM and 0.5 nM, respectively.

Consider `c1cc(-c2ccc(Oc3ccc(OCc4cscn4)cc3)cc2)[nH]n1` [Example 38, 4-{4-[4-(2H-Pyrazol-3-yl)-phenoxy]-phenoxymethyl}-thiazole], for which the values for the IC50 in assay [1] and in assay [2] were ≥ 5000 nM and 3.3 nM, respectively.

Take `c1cnc(COc2ccc(Oc3ccc(-c4ccn[nH]4)cc3)cc2)cn1` [Example 44, 2-({4-[4-(1H-pyrazol-5-yl)phenoxy]phenoxy}methyl)pyrazine]: the IC50 in assay [1] was 766 nM; in assay [2], 1.1 nM.

Consider `Cn1ncnc1COc1ccc(Oc2ccc(-c3ccn[nH]3)cc2)cc1` [Example 56, 1-methyl-5-({4-[4-(1H-pyrazol-5-yl)phenoxy]phenoxy}methyl)-1H-1,2,4-triazole], for which the IC50 in assay [1] is ≥ 5000 nM; in assay [2], 0.6 nM.

On to `Cn1ccnc1COc1ccc(Oc2ccc(-c3ccn[nH]3)cc2)cc1` [Example 26, 5-(4-{4-[(1-methyl-1H-imidazol-2-yl)methoxy]phenoxy}phenyl)-1H-pyrazole], for which the values for the IC50 in assay [1] and in assay [2] were 2110 nM and 1.2 nM, respectively.

Turning to `c1cc(-c2ccc(Oc3ccc(OCc4nccs4)cc3)cc2)[nH]n1` [Example 73, 2-({4-[4-(1H-pyrazol-5-yl)phenoxy]phenoxy}methyl)-1,3-thiazole], the IC50 in assay [1] was 4100 nM; in assay [2] it was 10.4 nM.

In the case of `O=C1N[C@H](COc2ccc(Oc3ccc(-c4ccn[nH]4)cn3)cc2)CO1` [Example 24, (4R)-4-[(4-{[5-(1H-pyrazol-5-yl)pyridin-2-yl]oxy}phenoxy)methyl]-1,3-oxazolidin-2-one], the IC50 in assay [1] amounted to 123 nM; in assay [2], 0.2 nM.

With `c1csc(CCOc2ccc(Oc3ccc(-c4ccn[nH]4)cc3)cc2)c1` [Example 68, 5-(4-{4-[2-(2-thienyl)ethoxy]phenoxy}phenyl)-1H-pyrazole], the IC50 is ≥ 5000 nM in assay [1] and 820 nM in assay [2].

Turning to `c1ccc2[nH]c(COc3ccc(Oc4ccc(-c5ccn[nH]5)cc4)cc3)nc2c1` [Example 28, 2-({4-[4-(1H-pyrazol-5-yl)phenoxy]phenoxy}methyl)-1H-benzimidazole], the IC50 was ≥ 5000 nM in assay [1] and 1.4 nM in assay [2].

In the case of `O=C1N[C@@H](COc2ccc(Cc3ccc(-c4ccn[nH]4)cc3)cc2)CO1` [Example 20, (4S)-4-({4-[4-(1H-pyrazol-5-yl)benzyl]phenoxy}methyl)-1,3-oxazolidin-2-one], the values for the IC50 in assay [1] and in assay [2] were 229 nM and 0.6 nM, respectively.

As for `c1cc(-c2ccc(Oc3ccc(OCCC4CCOCC4)cc3)cc2)[nH]n1` [Example 82, 5-(4-{4-[2-(tetrahydro-2H-pyran-4-yl)ethoxy]phenoxy}phenyl)-1H-pyrazole], the IC50 came to 2670 nM in assay [1] and 7.9 nM in assay [2].

In general, IC50 refers to the concentration needed to halve the response being measured.

For the origin of these results see patent US9139567B2, “Arylpyrazole ethers as inhibitors of leukotriene A4 hydrolase” (Boehringer Ingelheim International GmbH, priority 2011, dated 2015).
